The compounds below were run on Key Broadleaf Weed and Crop Species (assay: Post-Emergent Test II (Table 5)). Conditions: Abutilon theophrasti, post-emergence, 336 h, ABUTH: velvetleaf (Abutilon theophrasti), application rate 70 (kg ai/ha; footnote: g ai/ha), read-out: Visual Growth Reduction (%) 14 Days After Application ABUTH.
Format: in vivo
Outline: (§1)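 Visual injury ratings (0 = no injury, 100 = complete kill) taken 14 days after treatment, relative to untreated controls. Compounds, in an acetone/DMSO aqueous carrier with crop oil and surfactant, were applied by track sprayer at 187 L/ha, in a twofold dilution series from the top rate, to plants at the first to second true-leaf stage.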

SMILES | pest or weed control at 70 g/ha [%]
Nc1c(F)c(-c2ccc(C(F)(F)F)nc2)nc(C(=O)O)c1Cl [Compound 46, 4-amino-5-chloro-3-fluoro-6′-(trifluoromethyl)-[2,3′-bipyridine]-6-carboxylic acid] | 85 to 94

Same assay, conditions: Abutilon theophrasti, post-emergence, 336 h, ABUTH: velvetleaf (Abutilon theophrasti), application rate 140 (kg ai/ha; footnote: g ai/ha), read-out: Visual Growth Reduction (%) 14 Days After Application ABUTH

SMILES | pest or weed control at 140 g/ha [%]
Nc1c(F)c(-c2ccc(C(F)(F)F)nc2)nc(C(=O)O)c1Cl [Compound 46, 4-amino-5-chloro-3-fluoro-6′-(trifluoromethyl)-[2,3′-bipyridine]-6-carboxylic acid] | 95 to 100

Same assay, conditions: Amaranthus retroflexus, post-emergence, 336 h, AMARE: redroot pigweed (Amaranthus retroflexus), application rate 70 (kg ai/ha; footnote: g ai/ha), read-out: Visual Growth Reduction (%) 14 Days After Application AMARE

SMILES | pest or weed control at 70 g/ha [%]
Nc1c(F)c(-c2ccc(C(F)(F)F)nc2)nc(C(=O)O)c1Cl [Compound 46, 4-amino-5-chloro-3-fluoro-6′-(trifluoromethyl)-[2,3′-bipyridine]-6-carboxylic acid] | 95 to 100

Same assay, conditions: Amaranthus retroflexus, post-emergence, 336 h, AMARE: redroot pigweed (Amaranthus retroflexus), application rate 140 (kg ai/ha; footnote: g ai/ha), read-out: Visual Growth Reduction (%) 14 Days After Application AMARE

SMILES | pest or weed control at 140 g/ha [%]
Nc1c(F)c(-c2ccc(C(F)(F)F)nc2)nc(C(=O)O)c1Cl [Compound 46, 4-amino-5-chloro-3-fluoro-6′-(trifluoromethyl)-[2,3′-bipyridine]-6-carboxylic acid] | 95 to 100

Same assay, conditions: Brassica napus, post-emergence, 336 h, BRSSS: oilseed rape, canola (Brassica napus), application rate 70 (kg ai/ha; footnote: g ai/ha), read-out: Visual Growth Reduction (%) 14 Days After Application BRSSS

SMILES | pest or weed control at 70 g/ha [%]
Nc1c(F)c(-c2ccc(C(F)(F)F)nc2)nc(C(=O)O)c1Cl [Compound 46, 4-amino-5-chloro-3-fluoro-6′-(trifluoromethyl)-[2,3′-bipyridine]-6-carboxylic acid] | 95 to 100

Same assay, conditions: Brassica napus, post-emergence, 336 h, BRSSS: oilseed rape, canola (Brassica napus), application rate 140 (kg ai/ha; footnote: g ai/ha), read-out: Visual Growth Reduction (%) 14 Days After Application BRSSS

SMILES | pest or weed control at 140 g/ha [%]
Nc1c(F)c(-c2ccc(C(F)(F)F)nc2)nc(C(=O)O)c1Cl [Compound 46, 4-amino-5-chloro-3-fluoro-6′-(trifluoromethyl)-[2,3′-bipyridine]-6-carboxylic acid] | 95 to 100

Same assay, conditions: Chenopodium album, post-emergence, 336 h, CHEAL: lambsquarters (Chenopodium album), application rate 70 (kg ai/ha; footnote: g ai/ha), read-out: Visual Growth Reduction (%) 14 Days After Application CHEAL

SMILES | pest or weed control at 70 g/ha [%]
Nc1c(F)c(-c2ccc(C(F)(F)F)nc2)nc(C(=O)O)c1Cl [Compound 46, 4-amino-5-chloro-3-fluoro-6′-(trifluoromethyl)-[2,3′-bipyridine]-6-carboxylic acid] | 95 to 100

Same assay, conditions: Chenopodium album, post-emergence, 336 h, CHEAL: lambsquarters (Chenopodium album), application rate 140 (kg ai/ha; footnote: g ai/ha), read-out: Visual Growth Reduction (%) 14 Days After Application CHEAL

SMILES | pest or weed control at 140 g/ha [%]
Nc1c(F)c(-c2ccc(C(F)(F)F)nc2)nc(C(=O)O)c1Cl [Compound 46, 4-amino-5-chloro-3-fluoro-6′-(trifluoromethyl)-[2,3′-bipyridine]-6-carboxylic acid] | 95 to 100

Same assay, conditions: Euphorbia heterophylla, post-emergence, 336 h, EPHHL: wild poinsettia (Euphorbia heterophylla), application rate 70 (kg ai/ha; footnote: g ai/ha), read-out: Visual Growth Reduction (%) 14 Days After Application EPHHL

SMILES | pest or weed control at 70 g/ha [%]
Nc1c(F)c(-c2ccc(C(F)(F)F)nc2)nc(C(=O)O)c1Cl [Compound 46, 4-amino-5-chloro-3-fluoro-6′-(trifluoromethyl)-[2,3′-bipyridine]-6-carboxylic acid] | 95 to 100

Same assay, conditions: Euphorbia heterophylla, post-emergence, 336 h, EPHHL: wild poinsettia (Euphorbia heterophylla), application rate 140 (kg ai/ha; footnote: g ai/ha), read-out: Visual Growth Reduction (%) 14 Days After Application EPHHL

SMILES | pest or weed control at 140 g/ha [%]
Nc1c(F)c(-c2ccc(C(F)(F)F)nc2)nc(C(=O)O)c1Cl [Compound 46, 4-amino-5-chloro-3-fluoro-6′-(trifluoromethyl)-[2,3′-bipyridine]-6-carboxylic acid] | 95 to 100

Same assay, conditions: Helianthus annuus, post-emergence, 336 h, HELAN: sunflower (Helianthus annuus), application rate 70 (kg ai/ha; footnote: g ai/ha), read-out: Visual Growth Reduction (%) 14 Days After Application HELAN

SMILES | pest or weed control at 70 g/ha [%]
Nc1c(F)c(-c2ccc(C(F)(F)F)nc2)nc(C(=O)O)c1Cl [Compound 46, 4-amino-5-chloro-3-fluoro-6′-(trifluoromethyl)-[2,3′-bipyridine]-6-carboxylic acid] | 95 to 100

Same assay, conditions: Helianthus annuus, post-emergence, 336 h, HELAN: sunflower (Helianthus annuus), application rate 140 (kg ai/ha; footnote: g ai/ha), read-out: Visual Growth Reduction (%) 14 Days After Application HELAN

SMILES | pest or weed control at 140 g/ha [%]
Nc1c(F)c(-c2ccc(C(F)(F)F)nc2)nc(C(=O)O)c1Cl [Compound 46, 4-amino-5-chloro-3-fluoro-6′-(trifluoromethyl)-[2,3′-bipyridine]-6-carboxylic acid] | 95 to 100

Same assay, conditions: Viola tricolor, post-emergence, 336 h, VIOTR: wild pansy (Viola tricolor), application rate 70 (kg ai/ha; footnote: g ai/ha), read-out: Visual Growth Reduction (%) 14 Days After Application VIOTR

SMILES | pest or weed control at 70 g/ha [%]
Nc1c(F)c(-c2ccc(C(F)(F)F)nc2)nc(C(=O)O)c1Cl [Compound 46, 4-amino-5-chloro-3-fluoro-6′-(trifluoromethyl)-[2,3′-bipyridine]-6-carboxylic acid] | 85 to 94

Same assay, conditions: Viola tricolor, post-emergence, 336 h, VIOTR: wild pansy (Viola tricolor), application rate 140 (kg ai/ha; footnote: g ai/ha), read-out: Visual Growth Reduction (%) 14 Days After Application VIOTR

SMILES | pest or weed control at 140 g/ha [%]
Nc1c(F)c(-c2ccc(C(F)(F)F)nc2)nc(C(=O)O)c1Cl [Compound 46, 4-amino-5-chloro-3-fluoro-6′-(trifluoromethyl)-[2,3′-bipyridine]-6-carboxylic acid] | 95 to 100

These compounds were tested on Key Grass and Sedge Weeds as well as Grass Crops (assay: Post-Emergent Test II (Table 6)). Conditions: post-emergence, 336 h, CYPSS, 70 g ai/ha, 14 days after application, read-out: Visual Growth Reduction (%) 14 Days After Application CYPSS.
Format: in vivo
Outline: as §1

SMILES | pest or weed control at 70 g/ha [%]
Nc1c(F)c(-c2ccc(C(F)(F)F)nc2)nc(C(=O)O)c1Cl [Compound 46, 4-amino-5-chloro-3-fluoro-6′-(trifluoromethyl)-[2,3′-bipyridine]-6-carboxylic acid] | 95 to 100
